# Earlier results in patent US6414126B1, “C-aryl glucoside SGLT2 inhibitors and method” (Bristol-Myers Squibb Company, priority 1999, dated 2002).
# Tests used:
# human SGLT1 = biological target: T1, human SGLT1 (Homo sapiens, UniProt P13866); settings: SGLT1 transporter; read-out: Km values for uptake
# T1 sequence (P13866 1-664): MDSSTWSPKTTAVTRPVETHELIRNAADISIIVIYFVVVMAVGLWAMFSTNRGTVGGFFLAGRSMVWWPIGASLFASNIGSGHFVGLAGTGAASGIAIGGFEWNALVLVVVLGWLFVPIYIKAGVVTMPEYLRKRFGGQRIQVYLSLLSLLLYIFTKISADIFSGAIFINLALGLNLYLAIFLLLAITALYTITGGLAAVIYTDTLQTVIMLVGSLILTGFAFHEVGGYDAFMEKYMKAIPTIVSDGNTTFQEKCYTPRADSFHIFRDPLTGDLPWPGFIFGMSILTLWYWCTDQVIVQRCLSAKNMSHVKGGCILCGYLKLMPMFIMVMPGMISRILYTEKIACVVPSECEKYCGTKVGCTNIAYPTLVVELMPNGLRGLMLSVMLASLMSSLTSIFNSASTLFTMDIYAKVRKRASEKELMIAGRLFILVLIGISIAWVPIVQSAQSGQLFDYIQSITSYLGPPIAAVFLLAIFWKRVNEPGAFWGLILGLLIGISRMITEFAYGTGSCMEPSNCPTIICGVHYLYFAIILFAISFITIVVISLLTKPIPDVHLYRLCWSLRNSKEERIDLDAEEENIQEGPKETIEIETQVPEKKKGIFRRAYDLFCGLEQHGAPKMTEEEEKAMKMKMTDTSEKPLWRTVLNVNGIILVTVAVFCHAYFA
# human SGLT2 = biological target: T2, human SGLT2 (Homo sapiens, UniProt P31639); settings: SGLT2 transporter; read-out: Km values for uptake
# T2 sequence (P31639 1-672): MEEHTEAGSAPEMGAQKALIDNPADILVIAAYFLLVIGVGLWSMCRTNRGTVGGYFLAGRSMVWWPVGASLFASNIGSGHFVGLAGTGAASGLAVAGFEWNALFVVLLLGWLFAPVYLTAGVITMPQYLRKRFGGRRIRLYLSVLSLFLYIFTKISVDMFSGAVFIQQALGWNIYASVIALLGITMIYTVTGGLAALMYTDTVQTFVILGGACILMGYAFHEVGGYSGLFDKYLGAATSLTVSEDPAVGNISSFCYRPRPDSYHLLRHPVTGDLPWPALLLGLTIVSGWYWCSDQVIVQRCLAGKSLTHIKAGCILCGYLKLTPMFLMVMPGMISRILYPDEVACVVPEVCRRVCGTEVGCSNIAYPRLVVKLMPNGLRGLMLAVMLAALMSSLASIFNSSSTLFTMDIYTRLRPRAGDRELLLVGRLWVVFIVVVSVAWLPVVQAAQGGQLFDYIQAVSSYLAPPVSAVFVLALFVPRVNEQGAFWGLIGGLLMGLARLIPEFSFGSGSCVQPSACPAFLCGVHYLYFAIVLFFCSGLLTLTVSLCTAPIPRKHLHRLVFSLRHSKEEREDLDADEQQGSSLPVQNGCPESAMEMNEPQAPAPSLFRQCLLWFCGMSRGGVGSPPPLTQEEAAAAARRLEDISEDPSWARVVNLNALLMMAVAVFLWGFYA
smiles,measurement,setting,value
"CO[C@H]1O[C@H](CO)[C@@H](O)[C@H](O)[C@H]1O [AMG, α-methyl-D-glucopyranoside]",Km,human SGLT1,400 µM
same,Km,human SGLT2,1600 µM
